Measurements: ChEMBL document CHEMBL1687763 (2010)
≈ marks a conversion by molar mass, not a printed value.

What was measured:
[1] = tested on: Staphylococcus aureus; experiment: Antimicrobial activity against methicillin-resistant Staphylococcus aureus isolate 55 after 24 hrs by agar dilution method; conditions: isolate 55, 24 h
[2] = tested on: Staphylococcus aureus; experiment: Antimicrobial activity against methicillin-resistant Staphylococcus aureus isolate 56 after 24 hrs by agar dilution method; conditions: isolate 56, 24 h
[3] = tested on: Staphylococcus aureus; experiment: Antimicrobial activity against glycopeptide-susceptible Staphylococcus aureus NRS3 by tube macrodilution method
[4] = tested on: Staphylococcus aureus; experiment: Antimicrobial activity against methicillin-resistant Staphylococcus aureus isolate 55 after 24 hrs by macrodilution method; conditions: isolate 55, 24 h
[5] = tested on: Staphylococcus aureus; experiment: Antimicrobial activity against methicillin-resistant Staphylococcus aureus isolate 56 after 24 hrs by macrodilution method; conditions: isolate 56, 24 h
[6] = tested on: Staphylococcus aureus; experiment: Antimicrobial activity against methicillin-resistant Staphylococcus aureus isolate 55 after 48 hrs by agar dilution method; conditions: isolate 55, 48 h
[7] = tested on: Staphylococcus aureus; experiment: Antimicrobial activity against methicillin-resistant Staphylococcus aureus isolate 56 after 48 hrs by agar dilution method; conditions: isolate 56, 48 h
[8] = tested on: Staphylococcus aureus; experiment: Antimicrobial activity against methicillin-resistant Staphylococcus aureus isolate 55 after 48 hrs by macrodilution method; conditions: isolate 55, 48 h
[9] = tested on: Staphylococcus aureus; experiment: Antimicrobial activity against methicillin-resistant Staphylococcus aureus isolate 56 after 48 hrs by macrodilution method; conditions: isolate 56, 48 h
[10] = tested on: Staphylococcus aureus; experiment: Antimicrobial activity against methicillin-resistant Staphylococcus aureus isolate 55 grown on brain heart infusion media after 48 hrs by macrodilution method; conditions: isolate 55, 48 h
[11] = tested on: Staphylococcus aureus; experiment: Antimicrobial activity against methicillin-resistant Staphylococcus aureus isolate 56 grown on brain heart infusion media after 48 hrs by macrodilution method; conditions: isolate 56, 48 h
[12] = tested on: Staphylococcus aureus; experiment: Antimicrobial activity against methicillin-resistant Staphylococcus aureus isolate 55 grown on CAMHB media after 48 hrs by tube macrodilution method; conditions: isolate 55, 48 h
[13] = tested on: Staphylococcus aureus; experiment: Antimicrobial activity against methicillin-resistant Staphylococcus aureus isolate 56 grown on CAMHB media after 48 hrs by tube macrodilution method; conditions: isolate 56, 48 h
[14] = tested on: Staphylococcus aureus; experiment: Antimicrobial activity against heterogenous glycopeptide-intermediate resistant Staphylococcus aureus Mu3-D grown on brain heart infusion media after 48 hrs by tube macrodilution method
[15] = tested on: Staphylococcus aureus; experiment: Antimicrobial activity against methicillin-resistant Staphylococcus aureus isolate 1 by broth microdilution method
[16] = tested on: Staphylococcus aureus; experiment: Antimicrobial activity against methicillin-resistant Staphylococcus aureus isolate 6 by broth microdilution method
[17] = tested on: Staphylococcus aureus; experiment: Antimicrobial activity against methicillin-resistant Staphylococcus aureus isolate 8 by broth microdilution method
[18] = tested on: Staphylococcus aureus; experiment: Antimicrobial activity against methicillin-resistant Staphylococcus aureus isolate 12 by broth microdilution method

## CN[C@H](CC(C)C)C(=O)N[C@H]1C(=O)N[C@@H](CC(N)=O)C(=O)N[C@H]2C(=O)N[C@H]3C(=O)N[C@H](C(=O)N[C@H](C(=O)O)c4cc(O)cc(O)c4-c4cc3ccc4O)[C@H](O)c3ccc(c(Cl)c3)Oc3cc2cc(c3O[C@@H]2O[C@H](CO)[C@@H](O)[C@H](O)[C@H]2O[C@H]2C[C@](C)(N)[C@H](O)[C@H](C)O2)Oc2ccc(cc2Cl)[C@H]1O [VANCOMYCIN]
[1]
  MIC: 8 µg/mL (≈ 5.52 µM)
[2]
  MIC: 8 µg/mL (≈ 5.52 µM)
[3]
  MIC: ≥ 8 µg/mL
[4]
  MIC: 8 µg/mL (≈ 5.52 µM)
[5]
  MIC: 8 µg/mL (≈ 5.52 µM)
[6]
  MIC: 8 µg/mL (≈ 5.52 µM)
[7]
  MIC: 8 µg/mL (≈ 5.52 µM)
[8]
  MIC: 8 µg/mL (≈ 5.52 µM)
[9]
  MIC: 8 µg/mL (≈ 5.52 µM)
[10]
  MIC: 8 µg/mL (≈ 5.52 µM)
[11]
  MIC: 8 µg/mL (≈ 5.52 µM)
[12]
  MIC: 8 µg/mL (≈ 5.52 µM)
[13]
  MIC: 8 µg/mL (≈ 5.52 µM)
[14]
  MIC: 4 µg/mL (≈ 2.76 µM)
[15]
  MIC: 0.25 µg/mL (≈ 0.173 µM)
[16]
  MIC: 0.25 µg/mL (≈ 0.173 µM)
[17]
  MIC: 0.25 µg/mL (≈ 0.173 µM)
[18]
  MIC: 0.25 µg/mL (≈ 0.173 µM)
